Results from US20120059037A1, “SUBSTITUTED PYRIDINE DERIVATIVES AND THEIR MEDICAL USE” (NEUROSEARCH A/S, priority 2009, published 2012).

Target: T1, human Kv7.2+3 (Homo sapiens, UniProt O43525+O43526)
T1 construct: expressed in transfected cells; host or cells: HEK293
Test: FLIPR-based characterization of Kv7.2+3 modulators (thallium influx)
Type: cell-based
Conditions: HEK293 cells over-expressing human Kv7.2+3; for EC50: Tl+ influx, BTC-AM, FLIPR, relative to retigabine control responses; for Efficacy: maximal response relative to the reference (retigabine) response
Procedure: This experiment determines the ability of a test compound to modulate the activity of Kv7.2+3 channels heterologously expressed in human HEK293 cells. The ability is determined relative to retigabine. The activity is determined using a standard thallium (I) sensitive assay, e.g. using a fluorometric method in a Fluorescent Image Plate Reader (FLIPR) as described below in more detail.
Full concentration/response curves are generated and EC50 values are calculated based on max values. EC50 values (Effective Concentration) represent the concentration of the test substance, at which 50% of the channel activity is obtained when compared to retigabine control responses. Maximal response determined relative to the reference (retigabine) response is calculated.
Human HEK293 cells over-expressing human Kv7.2+3 are grown in culture medium (DMEM supplemented with 10% foetal bovine serum), in polystyrene culture flasks ([…]) in a humidified atmosphere of 5% CO2 in air, at 37° C. Cell confluence should be 80-90% on day of plating. Cells are rinsed with 4 ml of PBS (phosphate buffered saline) and incubated 2 min with 1 ml of Trypsin-EDTA. After addition of 25 ml of culture medium cells are re-suspended by trituration with a 25 ml pipette.
The cells are seeded at a density of ˜3×10^6 cells/ml (25 μl/well) in black-walled, clear bottom, 384-well plates pre-treated with 0.01 g/l poly-D-lysin (20 μl/well for ≧30 min). Plated cells were allowed to proliferate for 24 h before loading with dye.
BTC-AM (50 mg, Invitrogen) is added 25.5 μl DMSO. The BTC-AM stock solution (2 mM) is diluted to a final concentration of 2 μM in Cl^− free assay buffer (in mM: 140 Na^+-gluconate, 2.5 K^+-gluconate, 6 Ca2^+-gluconate, 1 Mg^2+ gluconate, 5 glucose, 10 HEPES, pH 7.3) containing 2 μM ouabain, 2 mM amaranth and 1 mM tartrazine.
The culture medium is aspirated from the wells, the cells are washed thrice in Cl^− free assay buffer, and 25 μl of the BTC-AM loading solution is added to each well. The cells are incubated at 37° C. for 60 min.
After the loading period, the Tl^+-sensitive BTC fluorescence signal is measured over time using a FLIPR.
• Temperature: Room temp. • First addition: 12 μl test or control compound after 15 sec at a rate of 30 μl/sec and starting height of 20 μl • Second addition: 12 μl stimulus buffer (Cl^− free assay buffer supplemented with 1 mM Tl2SO4, 5 mM K2SO4 as well as the quenchers amaranth (2 mM) and tartrazine (1 mM)) is added after an additional 3 minutes at a rate of 30 μl/sec and starting height of 30 μl • Reading intervals: First sequence—3 sec×5, 2 sec×24 and 5 sec×25 • Second sequence—1 sec×5, 2 sec×24 and 5 sec×36 Addition plates (compound plate and stimulus plate) are placed in positions 2 and 3, respectively. Cell plates are placed in position 1 and run using the “KCNQ (two additions)” program. FLIPR will then take the appropriate measurements in accordance with the interval settings above. Fluorescence obtained after stimulation is corrected for the mean basal fluorescence (in Cl^− free assay buffer).
Full concentration/response curves are generated and EC50 values (“Effective Concentration”; the concentration at which 50% of the channel activity is obtained when compared to retigabine control responses) are calculated based on peak values. Maximal response determined relative to the reference (retigabine) response is calculated.

EC50	Efficacy	Structure (SMILES)
66 nM	100%	O=C(Cc1cc(F)cc(F)c1)Nc1ccc(NCc2ccc(Cl)nc2)nc1N1CCCC1 [Compound 1.1, N-{6-[(6-Chloro-pyridin-3-ylmethyl)-amino]-2-pyrrolidin-1-yl-pyridin-3-yl}-2-(3,5-difluoro-phenyl)-acetamide]
20 nM	108%	O=C(Cc1cc(F)cc(F)c1)Nc1ccc(NCc2cccnc2)nc1N1CCCC1 [Compound 1.2, 2-(3,5-Difluoro-phenyl)-N-{6-[(pyridin-3-ylmethyl)-amino]-2-pyrrolidin-1-yl-pyridin-3-yl}-acetamide]

Structure (SMILES)	EC50	Efficacy
CC(C)(C)CC(=O)Nc1ccc(NCc2ccc(Cl)nc2)nc1N1CCCC1 [Compound 1.3, N-{6-[(6-Chloro-pyridin-3-ylmethyl)-amino]-2-pyrrolidin-1-yl-pyridin-3-yl}-3,3-dimethyl-butyramide]	66 nM	100%
